{"source": "patent US20090155875A1", "about": "“Methods to Enhance Carbon Monoxide Dehydrogenase Activity and Uses Thereof” (priority 2005, published 2009)", "key": {"[1]": {"test_system": "CODH", "sequence (P31896 2-639)": "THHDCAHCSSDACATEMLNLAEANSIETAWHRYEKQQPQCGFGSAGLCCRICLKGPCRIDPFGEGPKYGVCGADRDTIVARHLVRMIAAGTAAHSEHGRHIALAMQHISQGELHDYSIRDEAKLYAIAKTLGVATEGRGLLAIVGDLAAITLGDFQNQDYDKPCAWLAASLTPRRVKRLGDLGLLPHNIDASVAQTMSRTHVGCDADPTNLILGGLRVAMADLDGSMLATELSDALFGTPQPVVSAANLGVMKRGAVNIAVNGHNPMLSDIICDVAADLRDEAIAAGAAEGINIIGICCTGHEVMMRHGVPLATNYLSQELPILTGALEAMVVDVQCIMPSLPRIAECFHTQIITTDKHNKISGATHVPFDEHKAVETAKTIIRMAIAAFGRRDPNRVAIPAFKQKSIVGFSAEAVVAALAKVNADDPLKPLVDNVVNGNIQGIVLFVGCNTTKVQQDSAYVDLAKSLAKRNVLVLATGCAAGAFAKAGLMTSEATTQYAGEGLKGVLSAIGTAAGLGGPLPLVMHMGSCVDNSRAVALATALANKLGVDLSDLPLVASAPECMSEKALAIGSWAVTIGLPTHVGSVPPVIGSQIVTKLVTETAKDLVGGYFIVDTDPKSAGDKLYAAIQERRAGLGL", "assay": "CODH activity by reduction of methyl viologen coupled to CO oxidation (absorption at 578 nm)", "format": "biochemical, R. rubrum", "method": "CODH activity was determined by the reduction of methyl viologen coupled to CO oxidation and the concomitant absorption at 578 nm by UV spectrophotometry. CODH activity was measured in an anaerobic reaction mixture containing 50 mM Tris-HCl, 2 mM methyl viologen and 2 mM dithiothreitol at pH 8.7 (Maness, P. C. and Weaver, P. F. (2002) Int. J. Hydrogen Energy 27:1407-11). The cell free, CODH-enriched fraction was prepared as described (Maness, P. C. and Weaver, P. F. (2001) Appl. Microbiol. Biotechnol. 57:751-6). The supernatant was used as the source of CODH enzyme."}, "[2]": {"test_system": "Hydrogenase", "assay": "Hydrogenase activity in whole cells by H2 evolution (gas chromatography)", "format": "cell-based, R. rubrum", "method": "Hydrogenase activity was determined using whole cells by measuring H2 evolution in an anaerobic reaction mixture containing 2 mM methyl viologen, 0.1% (w/v) Triton X-100 and 50 mM potassium phosphate buffer at pH 7.0. The reaction was initiated by adding 5 mM sodium dithionite. The reaction was incubated 15 minutes at 30° C. in a shaking water bath. The reaction was terminated by addition of 0.1 ml 10% (w/v) tricholoroacetic acid. Hydrogen in the gas phase was determined by gas chromatography as described in Maness, P. C. and Weaver, P. F. (2001) Appl. Microbiol. Biotechnol. 57:751-6."}}, "data": [{"substance": "hemoglobin: human α- and β-globin chains encoded in pHE2 plasmid; purified from E. coli and added, or expressed in the cells", "values": [{"measurement": "CODH activity", "setting": "[1]; addition of hemoglobin (soluble, final 1.5 μM heme), untreated 17.76±2.85, p<9×10^−6", "result": "32.41±4.03 μmol methyl viologen reduction/min/ml"}, {"measurement": "CODH activity", "setting": "[1]; expression of hemoglobin in the cells (pHE2 plasmid, IPTG induced), p<0.005", "result": "29.60±7.30 μMol methyl viologen reduction/min/ml"}, {"measurement": "hydrogenase activity", "setting": "[2]; expression of hemoglobin in the cells, p<0.02", "result": "250.4±89.1 nMol H2/min/mg cell dry weight"}, {"measurement": "hydrogenase activity", "setting": "[2]; first statement, printed as 'hemoglobin expression', untreated 137.6±15.0, p<2×10^−6", "result": "266.9±27.0 nMol H2/min/mg cell dry weight"}]}]}
